Tested on: 931267-113-T-J1-PDC KRAS spheroid with HUVEC/MSC, viability
Experiment: Anticancer human tumor 931267-113-T-J1-PDC patient-derived colon adenocarcinoma cell line growth inhibition [KRAS2]
Conditions: for IC50: curve of first compound; for viability, T/C: stronger effect = lower value
Procedure, shortened: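 KRAS-mutant tumor cells were grown as spheroids with HUVEC endothelial cells and human MSCs as stroma. Targeted agents were tested alone and with KRAS pathway inhibitors. Doses started at or near clinical Cmax, or 10 microM, descending half-log.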

[1] = second compound 0.1 µM, first compound 0.0316 µM
[2] = second compound 0.1 µM, first compound 0.1 µM
[3] = second compound 0.316 µM, first compound 0.0316 µM
[4] = second compound 0.316 µM, first compound 0.1 µM
[5] = second compound 1 µM, first compound 0.0316 µM
[6] = second compound 1 µM, first compound 0.1 µM
[7] = second compound 3.16 µM, first compound 0.0316 µM
[8] = second compound 3.16 µM, first compound 0.1 µM
[9] = second compound 10 µM, first compound 0.0316 µM
[10] = second compound 10 µM, first compound 0.1 µM
[11] = second compound 0.1 µM, first compound 0.316 µM
[12] = second compound 0.1 µM, first compound 1 µM
[13] = second compound 0.1 µM, first compound 3.16 µM
[14] = second compound 0.1 µM, first compound 10 µM
[15] = second compound 0.316 µM, first compound 0.316 µM
[16] = second compound 0.316 µM, first compound 1 µM
[17] = second compound 0.316 µM, first compound 3.16 µM
[18] = second compound 0.316 µM, first compound 10 µM
[19] = second compound 1 µM, first compound 0.316 µM
[20] = second compound 1 µM, first compound 1 µM
[21] = second compound 1 µM, first compound 3.16 µM
[22] = second compound 1 µM, first compound 10 µM
[23] = second compound 3.16 µM, first compound 0.316 µM
[24] = second compound 3.16 µM, first compound 1 µM
[25] = second compound 3.16 µM, first compound 3.16 µM
[26] = second compound 3.16 µM, first compound 10 µM
[27] = second compound 10 µM, first compound 0.316 µM
[28] = second compound 10 µM, first compound 1 µM
[29] = second compound 10 µM, first compound 3.16 µM
[30] = second compound 10 µM, first compound 10 µM
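Also: compound exposure lasted 7 days before the readout.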
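For viability, T/C in this document: 100% = DMSO vehicle control viability.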

Row | Structure (SMILES) | IC50 (second compound 0.1 µM) | IC50 (second compound 0.316 µM) | IC50 (second compound 1 µM) | IC50 (second compound 3.16 µM) | IC50 (second compound 10 µM) | viability, T/C [1] | viability, T/C [2] | viability, T/C [3] | viability, T/C [4] | viability, T/C [5] | viability, T/C [6] | viability, T/C [7] | viability, T/C [8] | viability, T/C [9] | viability, T/C [10] | viability, T/C [11] | viability, T/C [12] | viability, T/C [13] | viability, T/C [14] | viability, T/C [15] | also measured
1 | CC(C)n1nc(-c2ccc3oc(N)nc3c2)c2c(N)ncnc21 + CC1OCC2(CCN(c3cnc(Sc4ccnc(N)c4Cl)c(N)n3)CC2)C1N | 4.38 nM | 3.13 nM | 3.53 nM | 3.6 nM | 7.13 nM | 27.6% | 26.1% | 19.9% | 16.7% | 25.7% | 18.7% | 27% | 15.6% | 19.9% | 22.5% |  |  |  |  |  | viability, T/C (second compound 0.1 µM, first compound 0.000316 µM): 90%; viability, T/C (second compound 0.1 µM, first compound 0.001 µM): 81.6%; viability, T/C (second compound 0.1 µM, first compound 0.00316 µM): 49.5%; viability, T/C (second compound 0.1 µM, first compound 0.01 µM): 42.8%; viability, T/C (second compound 0.316 µM, first compound 0.000316 µM): 85.2%; viability, T/C (second compound 0.316 µM, first compound 0.001 µM): 76.3%; viability, T/C (second compound 0.316 µM, first compound 0.00316 µM): 44.7%; viability, T/C (second compound 0.316 µM, first compound 0.01 µM): 34.9%; viability, T/C (second compound 1 µM, first compound 0.000316 µM): 79.7%; viability, T/C (second compound 1 µM, first compound 0.001 µM): 66.9%; viability, T/C (second compound 1 µM, first compound 0.00316 µM): 51.3%; viability, T/C (second compound 1 µM, first compound 0.01 µM): 36.8%; viability, T/C (second compound 3.16 µM, first compound 0.000316 µM): 68.4%; viability, T/C (second compound 3.16 µM, first compound 0.001 µM): 64.1%; viability, T/C (second compound 3.16 µM, first compound 0.00316 µM): 46.1%; viability, T/C (second compound 3.16 µM, first compound 0.01 µM): 43.9%; viability, T/C (second compound 10 µM, first compound 0.000316 µM): 66.5%; viability, T/C (second compound 10 µM, first compound 0.001 µM): 77.7%; viability, T/C (second compound 10 µM, first compound 0.00316 µM): 62.2%; viability, T/C (second compound 10 µM, first compound 0.01 µM): 45.3%
2 | CC1(C)CCC(CN2CCN(c3ccc(C(=O)NS(=O)(=O)c4ccc(NCC5CCOCC5)c([N+](=O)[O-])c4)c(Oc4cnc5[nH]ccc5c4)c3)CC2)=C(c2ccc(Cl)cc2)C1 + CC1OCC2(CCN(c3cnc(Sc4ccnc(N)c4Cl)c(N)n3)CC2)C1N | 1710 nM | 1640 nM | 1740 nM | 1670 nM | 1660 nM | 104% | 84.1% | 91% | 81.3% | 84.9% | 75.9% | 61.1% | 77.8% | 83.7% | 77% | 87.8% | 75.7% | 20.9% | 8.53% | 73.2% | viability, T/C [16]: 72.8%; viability, T/C [17]: 20.7%; viability, T/C [18]: 3.06%; viability, T/C [19]: 67.5%; viability, T/C [20]: 81.3%; viability, T/C [21]: 20.5%; viability, T/C [22]: 1.45%; viability, T/C [23]: 70.2%; viability, T/C [24]: 70.6%; viability, T/C [25]: 25%; viability, T/C [26]: 0.6%; viability, T/C [27]: 94.5%; viability, T/C [28]: 85.9%; viability, T/C [29]: 5.34%; viability, T/C [30]: 0.28%
3 | COc1cc(Nc2ncc3c(n2)-c2ccc(Cl)cc2C(c2c(F)cccc2OC)=NC3)ccc1C(=O)O + CC1OCC2(CCN(c3cnc(Sc4ccnc(N)c4Cl)c(N)n3)CC2)C1N | > 10000 nM | 6420 nM | 848 nM | 571 nM | 799 nM | 69.3% | 75.1% | 67.4% | 68.7% | 62.4% | 52.4% | 53.4% | 64.6% | 70.2% | 65.4% | 58.4% | 58% | 51.7% | 54% | 57.1% | viability, T/C [16]: 61.3%; viability, T/C [17]: 49%; viability, T/C [18]: 49.5%; viability, T/C [19]: 54.4%; viability, T/C [20]: 51.5%; viability, T/C [21]: 41.3%; viability, T/C [22]: 31.6%; viability, T/C [23]: 56.8%; viability, T/C [24]: 42%; viability, T/C [25]: 33.3%; viability, T/C [26]: 21.6%; viability, T/C [27]: 51.1%; viability, T/C [28]: 46.8%; viability, T/C [29]: 43.3%; viability, T/C [30]: 15.8%
4 | COc1cc2nccc(Oc3ccc(NC(=O)C4(C(=O)Nc5ccc(F)cc5)CC4)cc3)c2cc1OC + CC1OCC2(CCN(c3cnc(Sc4ccnc(N)c4Cl)c(N)n3)CC2)C1N | > 10000 nM | 2790 nM | 3060 nM | 4530 nM | 2930 nM | 87% | 116% | 81.9% | 91.9% | 92.8% | 95.8% | 78.6% | 99% | 99.2% | 101% | 102% | 88.8% | 51.4% | 66.6% | 84.9% | viability, T/C [16]: 99.5%; viability, T/C [17]: 45.1%; viability, T/C [18]: 37.4%; viability, T/C [19]: 86.3%; viability, T/C [20]: 88.2%; viability, T/C [21]: 48.1%; viability, T/C [22]: 49.5%; viability, T/C [23]: 91.3%; viability, T/C [24]: 92.1%; viability, T/C [25]: 57.5%; viability, T/C [26]: 33.5%; viability, T/C [27]: 93.3%; viability, T/C [28]: 86.5%; viability, T/C [29]: 47.1%; viability, T/C [30]: 30.5%
